# “And” between values parts separate entries of the source, which are not always exact repeats. Identical values can stand only once. Like-named read-outs stand apart in the source and are kept apart here.
# Columns and labels:
# [1] = target: T1, GAL-7 homodimer (Homo sapiens, UniProt P47929); test: COIN-nMS affinity measurement; format: binding; parameters: key: NB: No binding detected; details: glycans present as a mixture (G2, G5-G13); average of eight measurements; pH 6.9
# T1 construct: made in house
# [2] = target: T1, GAL-7 homodimer; test: direct nMS affinity measurement; format: binding; parameters: key: NB: No binding detected; details: glycans present as a mixture (G2, G5-G13); pH 6.9
# [3] = target: T2, GNA (Galanthus nivalis, UniProt P30617); test: COIN-CaR-nMS; format: binding; details: purified glycan; ammonium acetate 200 mM, pH 6.9
# T2 sequence (P30617 24-128 limits assumed): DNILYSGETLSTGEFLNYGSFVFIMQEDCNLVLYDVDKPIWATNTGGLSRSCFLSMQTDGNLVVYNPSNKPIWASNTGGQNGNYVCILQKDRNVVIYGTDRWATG
# [4] = target: T2, GNA; test: direct nMS (ESI-MS) measurement; format: binding; details: read-out: Kd by direct nMS (column Kd (Literature))
# [5] = target: T3, GAL-3C (Homo sapiens, UniProt P17931); test: COIN-nMS affinity measurement; format: binding; parameters: human Galectin-3 (GAL-3C, residues 107–250, molecular weight (MW) 16 327 Da); key: NB: No binding detected; details: glycans present as a mixture (G2, G5-G13); average of eight measurements; pH 6.9
# [6] = target: T3, GAL-3C; test: direct nMS (ESI-MS) affinity measurement at known concentrations; format: binding; parameters: human Galectin-3 (GAL-3C, residues 107–250, molecular weight (MW) 16 327 Da); key: NB: No binding detected; details: glycans present as a mixture (G2, G5-G13); pH 6.9
# [7] = target: T4, DC-SIGN CRD (Homo sapiens, UniProt Q9NNX6); test: COIN-nMS affinity measurement; format: binding; parameters: The carbohydrate recognition domain (CRD) of DC-SIGN (residues 250–404, MW 17 794 Da); made in house
# T4 sequence (Q9NNX6 250-404): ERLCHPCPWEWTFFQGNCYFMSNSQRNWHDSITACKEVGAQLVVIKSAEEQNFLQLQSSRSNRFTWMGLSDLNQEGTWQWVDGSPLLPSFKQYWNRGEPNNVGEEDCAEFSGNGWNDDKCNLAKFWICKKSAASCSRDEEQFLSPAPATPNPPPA
# [8] = target: T4, DC-SIGN CRD; test: direct nMS affinity measurement; format: binding; parameters: The carbohydrate recognition domain (CRD) of DC-SIGN (residues 250–404, MW 17 794 Da); made in house; details: pH 7.4
# [9] = target: SNA (Sambucus nigra agglutinin) (Sambucus nigra, UniProt Q41358); test: biochemical; format: binding
# [10] = target: T5, CD22-Fc (Homo sapiens, UniProt P20273); test: COIN-CaR-nMS; format: binding; details: N-glycan natural libraries and G21; pH 6.9
# T5 construct: His6 (C); made in house; host or cells: wild-type CHO cells
# T5 sequence (P20273 20-332 limits assumed): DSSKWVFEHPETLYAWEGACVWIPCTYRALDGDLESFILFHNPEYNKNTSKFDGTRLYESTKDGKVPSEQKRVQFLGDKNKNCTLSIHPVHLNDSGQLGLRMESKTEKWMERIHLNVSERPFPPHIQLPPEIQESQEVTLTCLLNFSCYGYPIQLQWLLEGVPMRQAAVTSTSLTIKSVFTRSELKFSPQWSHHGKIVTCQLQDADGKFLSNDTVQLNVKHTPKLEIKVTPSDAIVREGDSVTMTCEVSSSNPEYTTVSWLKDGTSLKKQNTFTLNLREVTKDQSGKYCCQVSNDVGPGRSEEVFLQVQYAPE
# [11] = target: SNA (Sambucus nigra, UniProt Q41358); test: biochemical; format: binding; details: apparent Kd by ITC (Literature)
# [12] = target: Siglec-7; details: ITC; cited from earlier work
# [13] = target: Sig7-Fc (Homo sapiens, UniProt Q9Y286); test: COIN-CaR-nMS; format: binding; parameters: Siglec 7-Fc (Sig7-Fc, residue 1–345, MW 150 kDa); His6 (C); made in house; host or cells: wild-type CHO cells
# [14] = target: T3, GAL-3C; parameters: human Galectin-3 (GAL-3C, residues 107–250, molecular weight (MW) 16 327 Da); details: known Kd used to calculate glycan concentration; cited from earlier work
# [15] = tested on: GFP-encoding SARS-CoV-2 pseudotyped virus, ACE2+ HEK293 cells; format: cell-based
# [16] = tested on: SARS-CoV-2 (hCoV-19/Canada/ON-VIDO-01/2020), ACE2+ HEK293 cells; format: cell-based
# [17] = target: T6, AAL (Aleuria Aurantia lectin) (Aleuria aurantia, UniProt P18891); test: COIN-CaR-nMS; format: binding; details: N-glycan natural libraries; pH 6.9
# T6 construct: purchased Vector Laboratories (Newark, CA, USA)
# T6 sequence (P18891 1-313): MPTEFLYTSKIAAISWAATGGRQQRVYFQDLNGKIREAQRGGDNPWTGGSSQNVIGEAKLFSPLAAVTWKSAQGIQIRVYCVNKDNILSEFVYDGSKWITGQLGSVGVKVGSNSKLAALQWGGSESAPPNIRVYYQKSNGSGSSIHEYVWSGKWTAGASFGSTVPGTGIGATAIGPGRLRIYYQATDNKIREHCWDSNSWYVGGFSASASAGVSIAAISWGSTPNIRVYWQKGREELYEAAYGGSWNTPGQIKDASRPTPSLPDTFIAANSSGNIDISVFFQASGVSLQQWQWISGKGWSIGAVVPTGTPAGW
# [18] = target: RCA-I (Ricinus communis agglutinin) (Ricinus communis, UniProt P06750); format: binding; details: pH 6.9; read-out: Kd (Native)
# [19] = target: MAA; test: Isothermal titration calorimetry (ITC); format: binding, Maackia amurensis; details: ammonium acetate 200 mM, 25 °C, read-out: apparent Kd by ITC (Literature)
# [20] = tested on: MAA (Maackia amurensis agglutinin); test: COIN-CaR-nMS; format: binding
# [21] = target: SARS-CoV-2 RBD (Severe acute respiratory syndrome coronavirus 2, UniProt P0DTC2); test: biochemical; format: binding; details: pH 6.9
# [22] = N-glycan natural libraries and purified oligosaccharides, pH 6.9, read-out: Kd
# Sequence of SNA (Sambucus nigra agglutinin) (Q41358 309-570 limits assumed): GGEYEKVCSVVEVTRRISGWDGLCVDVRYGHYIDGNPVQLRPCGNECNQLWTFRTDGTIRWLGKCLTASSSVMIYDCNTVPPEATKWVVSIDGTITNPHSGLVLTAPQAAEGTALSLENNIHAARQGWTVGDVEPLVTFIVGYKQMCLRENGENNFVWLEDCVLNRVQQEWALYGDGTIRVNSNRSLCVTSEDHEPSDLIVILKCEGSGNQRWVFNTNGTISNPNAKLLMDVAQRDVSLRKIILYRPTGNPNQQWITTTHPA
# Sequence of SNA (Sambucus nigra agglutinin) (Q41358 29-289 partner limits assumed): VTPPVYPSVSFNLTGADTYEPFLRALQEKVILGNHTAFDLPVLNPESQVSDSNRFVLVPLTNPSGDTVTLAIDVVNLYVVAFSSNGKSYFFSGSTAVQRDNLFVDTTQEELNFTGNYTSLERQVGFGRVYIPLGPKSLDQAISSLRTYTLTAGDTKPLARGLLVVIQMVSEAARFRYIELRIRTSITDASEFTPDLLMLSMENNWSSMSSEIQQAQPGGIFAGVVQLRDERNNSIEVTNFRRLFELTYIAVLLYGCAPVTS
# T1 sequence (P47929 whole entry): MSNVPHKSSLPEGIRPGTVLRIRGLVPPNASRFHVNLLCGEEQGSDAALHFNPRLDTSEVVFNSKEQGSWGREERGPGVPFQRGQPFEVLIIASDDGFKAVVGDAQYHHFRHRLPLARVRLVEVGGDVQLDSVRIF
# T3 sequence (P17931 107-250): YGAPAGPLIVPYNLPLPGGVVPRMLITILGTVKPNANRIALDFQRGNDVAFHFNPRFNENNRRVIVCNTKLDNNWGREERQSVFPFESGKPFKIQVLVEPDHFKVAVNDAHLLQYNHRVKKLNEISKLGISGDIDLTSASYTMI
# Sequence of Sig7-Fc (Q9Y286 19-345): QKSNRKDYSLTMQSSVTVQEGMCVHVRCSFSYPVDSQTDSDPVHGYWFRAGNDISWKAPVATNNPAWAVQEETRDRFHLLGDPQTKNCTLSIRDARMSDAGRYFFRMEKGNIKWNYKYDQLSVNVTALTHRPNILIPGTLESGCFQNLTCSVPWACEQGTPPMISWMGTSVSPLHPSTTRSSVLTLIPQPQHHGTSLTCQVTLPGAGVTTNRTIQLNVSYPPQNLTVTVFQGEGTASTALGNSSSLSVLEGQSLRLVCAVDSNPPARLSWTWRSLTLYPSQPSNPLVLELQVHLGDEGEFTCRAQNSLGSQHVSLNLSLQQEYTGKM
# Sequence of SNA (Q41358 309-570 limits assumed): as the sequence (Q41358 309-570 limits assumed) above
# Sequence of SNA (Q41358 29-289 partner limits assumed): as the sequence (Q41358 29-289 partner limits assumed) above
compound,measurement,setting,value
"OC[C@H]1O[C@H](O[C@@H]2[C@@H](OC[C@H]3O[C@H](OC[C@H]4OC(O)[C@@H](O)[C@@H](O[C@H]5O[C@H](CO)[C@@H](O)[C@H](O)[C@@H]5O[C@H]5O[C@H](CO)[C@@H](O)[C@H](O)[C@@H]5O[C@H]5O[C@H](CO)[C@@H](O)[C@H](O)[C@@H]5O)[C@@H]4O)[C@@H](O)[C@@H](O[C@H]4O[C@H](CO)[C@@H](O)[C@H](O)[C@@H]4O[C@H]4O[C@H](CO)[C@@H](O)[C@H](O)[C@@H]4O)[C@@H]3O)O[C@H](CO)[C@@H](O)[C@@H]2O)[C@@H](O)[C@@H](O)[C@@H]1O (stereo partly drawn) [Glycan G5, α-D-Man-(1→2)-α-D-Man-(1→6)-[Man-(1→2)-α-D-Man-(1→3)]-α-D-Man-(1→6)-[Man-(1→2)-α-D-Man-(1→2)-α-D-Man-(1→3)]-α-D-Man]",Kd (COIN-nMS),[1],NB and do not bind
same,Kd (nMS),[2],NB
same,Kd,[3],553.2 ± 1 µM
same,Kd,[4],774 µM
same,Kd (COIN-nMS),[5],NB and do not bind
same,Kd (nMS),[6],NB
same,Kd,"[7]; global fit of data sets at 75, 100, 125 µM glycan, read-out: Kd (COIN-nMS, global fit)",235 ± 12.6 µM
same,Kd,"[7]; glycan concentration 75 µM, pH 7.4, read-out: Kd (COIN-nMS, individual experiments)",212 ± 2.2 µM
same,Kd,"[7]; glycan concentration 100 µM, pH 7.4, read-out: Kd (COIN-nMS, individual experiments)",246.7 ± 1 µM
same,Kd,"[7]; glycan concentration 125 µM, pH 7.4, read-out: Kd (COIN-nMS, individual experiments)",234 ± 1.5 µM
same,Kd,"[7]; glycans present as a mixture (G2, G5, G10, G14-G20), average of six measurements, pH 7.4, read-out: Kd (COIN-nMS)",240 ± 40 µM
same,Kd,"[8]; glycans present as a mixture (G2, G5, G10, G14-G20)",230 ± 20 µM
same,Kd,"[8]; individual glycan, ammonium acetate 200 mM, 2.5 mM calcium",231 ± 17.3 µM
"CC(=O)N[C@H]1[C@H]([C@H](O)[C@H](O)CO)O[C@@](OC[C@H]2O[C@@H](O[C@H]3[C@H](O)[C@@H](O)C(O)O[C@@H]3CO)[C@H](O)[C@@H](O)[C@H]2O)(C(=O)O)C[C@@H]1O (stereo partly drawn) [Glycan G21, α-D-Neu5Ac-(2→6)-β-D-Gal-(1→4)-D-Glc]",fold weaker ligand than G23,[9],3 fold
same,Kd,[9]; Kd (COIN-CaR-nMS),1.6 ± 0.4 µM
same,Kd,"[9]; Kd (COIN-CaR-nMS), two ligands",2 µM and 1.5 µM and 3.3 µM and 1.7 µM and 1.6 µM and 1.8 µM
same,Kd,[10],40 µM
same,Kd,[11],1.98 µM and 2 µM
same,Kd,[12],240 µM
same,Kd,"[13]; G21 0.5 μM and G29 30 μM, read-out: Kd (COIN-CaR-nMS), two ligands",284 ± 70 µM
same,Kd,"[13]; G21 1.0 μM and G29 30 μM, read-out: Kd (COIN-CaR-nMS), two ligands",239 ± 50 µM
same,Kd,"[13]; G21 5 μM and G29 30 μM, read-out: Kd (COIN-CaR-nMS), two ligands",366 ± 10 µM
same,Kd,"[13]; G21 10 μM and G29 30 μM, read-out: Kd (COIN-CaR-nMS), two ligands",249 ± 20 µM
same,Kd,[13]; [22],236 µM
α-D-GalNAc(1→3)-[α-L-Fuc(1→2)]-β-Gal(1→4)-D-GlcNAc [Glycan G24],Kd,[14],7.2 ± 0.4 µM
O=C1N[C@@H]2[C@@H](O)[C@@H](O)[C@H](O)[C@@H](CO)N2C1=O [kifunensine],infection by pseudotyped virus (%GFP+ cells),[15],decreased significantly
same,"infection by authentic virus (viral titers, PFU)",[16],concentration-dependent decrease in infection
CC(=O)N[C@H]1[C@H](O[C@H]2[C@H](O)[C@@H](NC(C)=O)C(O)O[C@@H]2CO[C@@H]2O[C@@H](C)[C@@H](O)[C@@H](O)[C@@H]2O)O[C@H](CO)[C@@H](O[C@@H]2O[C@H](CO[C@H]3O[C@H](CO)[C@@H](O)[C@H](O)[C@@H]3O[C@@H]3O[C@H](CO)[C@@H](O)[C@H](O)[C@H]3NC(C)=O)[C@@H](O)[C@H](O[C@H]3O[C@H](CO)[C@@H](O)[C@H](O)[C@@H]3O[C@@H]3O[C@H](CO)[C@@H](O)[C@H](O)[C@H]3NC(C)=O)[C@@H]2O)[C@@H]1O (stereo partly shown) [HexNAc4Hex3Fuc1],Kd,[17],2.6 ± 0.57 µM
same,Kd,[18],1.73 ± 0.08 µM
"CC(=O)N[C@H]1[C@H]([C@H](O)[C@H](O)CO)O[C@@](O[C@H]2[C@@H](O)[C@@H](CO)O[C@@H](O[C@H]3[C@H](O)[C@@H](O)C(O)O[C@@H]3CO)[C@@H]2O)(C(=O)O)C[C@@H]1O (stereo partly drawn) [Glycan G22, α-D-Neu5Ac-(2→3)-β-D-Gal-(1→4)-D-Glc]",Kd,[19],4 ± 2 µM
same,Kd,[12],680 µM
"CC(=O)N[C@H]1[C@H]([C@H](O)[C@H](O)CO)O[C@@](OC[C@H]2O[C@@H](O[C@H]3[C@H](O)[C@@H](NC(C)=O)C(O)O[C@@H]3CO)[C@H](O)[C@@H](O)[C@H]2O)(C(=O)O)C[C@@H]1O (stereo partly drawn) [Glycan G23, α-D-Neu5Ac-(2→6)-β-D-Gal-(1→4)-D-GlcNAc]",Kd,[9]; Kd (COIN-CaR-nMS),0.6 µM
same,Kd,"[9]; Kd (COIN-CaR-nMS), two ligands",700 nM and 900 nM and 400 nM (2×) and 300 nM and 600 nM
same,Kd,"[9]; pH 6.9, read-out: Kd, Native library (-NeuS)",0.55 ± 0.16 µM
same,fold weaker binding than G25,[20],2 fold
same,Kd,[21],76 ± 9 µM
same,Kd,[13]; [22],265 ± 66 µM

# From publication PMC10303200 (ACS Central Science, 2023)
